This passage reports inhibition results from patent EP4740948A1 (Dong Wha Pharm. Co., Ltd., priority 2023, dated 2025).

A word on the inhibition: it is how much of the control response was suppressed.

One test concerns G401 cells. In words: Cancer cell proliferation inhibition (Cell Counting Kit-8), rhabdoid tumor cell line. It counts as cell-based. The conditions noted are these: Homo sapiens, G-401, 264 h, 1000 nM, cultured seven to 11 days; read-out: % inhibition rate G401. Summed up: (§1)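 Cells grown in RPMI1640, McCoy's 5a, L-15 or DMEM with 10% FBS, seeded at 100 to 1,000 cells/well and treated with test substance at 1000 nM for 7 to 11 days. Viability read by CCK-8; % inhibition = {1−(test/control)} × 100.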

Another test deals with EZH1 (Homo sapiens, UniProt Q92800). Briefly: AlphaLISA enzyme activity inhibition, EZH1. It counts as biochemical. The following applies: for inhibition at 0.005 µM: 5nM test substance; for inhibition at 0.01 µM: 10nM test substance. In outline:
(§2)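 EZH1 or EZH2 was mixed with compound at 5 nM or 10 nM final in 20 mM Tris pH 8.0, 0.1% BSA, 0.5 mM DTT, then histone H3 peptide and SAM were added. After 2 h reaction, AlphaLISA acceptor and donor beads detected methylation; inhibition rate was calculated against DMSO control.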
(In general: In Alpha technology, singlet oxygen from a donor bead excites a nearby acceptor bead.)

In the next test the test system is MKN-45 cells. In words: Cancer cell proliferation inhibition (Cell Counting Kit-8), gastric cancer cell line. It counts as cell-based. The following applies: Homo sapiens, MKN-45, 264 h, 1000 nM, cultured seven to 11 days; read-out: % inhibition rate MKN -45. In outline:
as §1
(Formazan colour is commonly taken as a measure of viable cells.)

The next test has as its system SW-13 cells. In words: Cancer cell proliferation inhibition (Cell Counting Kit-8), adrenal cancer cell line. The format is cell-based. The following applies: Homo sapiens, SW13, 264 h, 1000 nM, cultured seven to 11 days; read-out: % inhibition rate SW-13. In outline:
(§3)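 Single-concentration growth test: compound at 1000 nM was applied to cells seeded at 100 to 1,000 per well and cultured seven to 11 days. Proliferation was then quantified with Cell Counting Kit-8, and percent inhibition was taken relative to control wells.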

The next test deals with EZH2 (Homo sapiens, UniProt Q15910). Briefly: AlphaLISA enzyme activity inhibition, EZH2. It counts as biochemical. The following applies: for inhibition at 0.005 µM: 5nM test substance; for inhibition at 0.01 µM: 10nM test substance. Summed up:
as §2

The subject of a further test is Lovo cells. In words: Cancer cell proliferation inhibition (Cell Counting Kit-8), colorectal cancer cell line. It counts as cell-based. The conditions noted are these: Homo sapiens, LoVo, 264 h, 1000 nM, cultured seven to 11 days; read-out: % inhibition rate LoVo. In outline:
as §3

A further test has as its system NCI-H1299 cells. Briefly: Cancer cell proliferation inhibition (Cell Counting Kit-8), lung cancer cell line. The following applies: Homo sapiens, NCI-H1299, 264 h, 1000 nM, cultured seven to 11 days; read-out: % inhibition rate NCI-H129 9. It counts as cell-based. In outline: as §3
The test system of the next test is MIA-PaCa-2 cells. Briefly: Cancer cell proliferation inhibition (Cell Counting Kit-8), pancreatic cancer cell line. The format is cell-based. The conditions noted are these: Homo sapiens, MIA PaCa-2, 264 h, 1000 nM, cultured seven to 11 days; read-out: % inhibition rate MIA-Paca2. In outline:
as §3

Chain of EZH2 (Q15910 whole entry, species assumed): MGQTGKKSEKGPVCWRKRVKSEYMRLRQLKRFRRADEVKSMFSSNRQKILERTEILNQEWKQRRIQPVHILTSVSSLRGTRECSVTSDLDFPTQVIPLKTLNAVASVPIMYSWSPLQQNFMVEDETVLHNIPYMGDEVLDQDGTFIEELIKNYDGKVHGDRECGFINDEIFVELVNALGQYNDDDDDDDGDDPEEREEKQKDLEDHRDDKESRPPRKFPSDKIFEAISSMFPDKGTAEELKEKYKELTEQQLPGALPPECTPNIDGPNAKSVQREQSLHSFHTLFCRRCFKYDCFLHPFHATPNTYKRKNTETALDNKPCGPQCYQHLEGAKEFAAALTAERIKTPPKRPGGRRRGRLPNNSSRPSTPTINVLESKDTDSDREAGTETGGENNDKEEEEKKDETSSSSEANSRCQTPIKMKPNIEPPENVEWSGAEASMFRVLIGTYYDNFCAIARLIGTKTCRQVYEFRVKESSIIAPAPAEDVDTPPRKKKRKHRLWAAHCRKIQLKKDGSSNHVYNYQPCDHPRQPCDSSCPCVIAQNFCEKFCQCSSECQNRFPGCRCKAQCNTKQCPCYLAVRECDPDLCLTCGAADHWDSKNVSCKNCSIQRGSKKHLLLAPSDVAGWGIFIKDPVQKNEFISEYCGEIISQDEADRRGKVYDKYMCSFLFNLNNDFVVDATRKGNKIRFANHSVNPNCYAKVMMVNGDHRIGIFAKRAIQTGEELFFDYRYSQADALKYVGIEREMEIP
Chain of EZH2 (O75530 whole entry partner, species assumed): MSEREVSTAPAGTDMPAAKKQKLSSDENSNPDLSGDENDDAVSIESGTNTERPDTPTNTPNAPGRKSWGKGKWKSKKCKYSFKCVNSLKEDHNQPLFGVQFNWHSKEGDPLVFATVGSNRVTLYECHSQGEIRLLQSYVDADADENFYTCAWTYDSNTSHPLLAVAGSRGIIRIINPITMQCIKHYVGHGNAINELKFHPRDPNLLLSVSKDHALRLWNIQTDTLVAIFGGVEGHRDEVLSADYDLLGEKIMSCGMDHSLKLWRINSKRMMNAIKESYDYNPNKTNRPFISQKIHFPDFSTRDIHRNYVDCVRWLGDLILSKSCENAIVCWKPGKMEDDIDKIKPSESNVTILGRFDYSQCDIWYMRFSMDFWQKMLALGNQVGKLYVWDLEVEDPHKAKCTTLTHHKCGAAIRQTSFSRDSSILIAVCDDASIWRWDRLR
Chain of EZH2 (Q15022 whole entry partner, species assumed): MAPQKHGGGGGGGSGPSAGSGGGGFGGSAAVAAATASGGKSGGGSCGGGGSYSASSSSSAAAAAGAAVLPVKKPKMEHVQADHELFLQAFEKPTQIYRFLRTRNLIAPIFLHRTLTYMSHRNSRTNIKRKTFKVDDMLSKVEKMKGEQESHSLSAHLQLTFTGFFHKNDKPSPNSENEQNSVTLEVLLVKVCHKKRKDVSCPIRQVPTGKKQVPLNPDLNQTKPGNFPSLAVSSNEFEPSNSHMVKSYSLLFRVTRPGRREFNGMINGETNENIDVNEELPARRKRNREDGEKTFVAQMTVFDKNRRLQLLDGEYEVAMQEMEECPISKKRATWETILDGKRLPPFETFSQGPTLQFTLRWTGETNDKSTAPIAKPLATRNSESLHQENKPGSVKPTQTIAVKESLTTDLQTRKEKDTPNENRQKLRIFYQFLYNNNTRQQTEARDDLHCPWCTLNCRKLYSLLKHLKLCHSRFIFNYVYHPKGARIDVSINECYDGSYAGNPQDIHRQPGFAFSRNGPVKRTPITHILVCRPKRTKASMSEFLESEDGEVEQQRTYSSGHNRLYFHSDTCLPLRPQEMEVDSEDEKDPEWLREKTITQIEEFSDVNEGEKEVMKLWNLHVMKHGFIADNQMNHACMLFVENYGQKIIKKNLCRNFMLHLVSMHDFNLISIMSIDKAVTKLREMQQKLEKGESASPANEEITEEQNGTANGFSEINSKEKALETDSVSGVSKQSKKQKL
Chain of EZH1 (Q92800 whole entry, species assumed): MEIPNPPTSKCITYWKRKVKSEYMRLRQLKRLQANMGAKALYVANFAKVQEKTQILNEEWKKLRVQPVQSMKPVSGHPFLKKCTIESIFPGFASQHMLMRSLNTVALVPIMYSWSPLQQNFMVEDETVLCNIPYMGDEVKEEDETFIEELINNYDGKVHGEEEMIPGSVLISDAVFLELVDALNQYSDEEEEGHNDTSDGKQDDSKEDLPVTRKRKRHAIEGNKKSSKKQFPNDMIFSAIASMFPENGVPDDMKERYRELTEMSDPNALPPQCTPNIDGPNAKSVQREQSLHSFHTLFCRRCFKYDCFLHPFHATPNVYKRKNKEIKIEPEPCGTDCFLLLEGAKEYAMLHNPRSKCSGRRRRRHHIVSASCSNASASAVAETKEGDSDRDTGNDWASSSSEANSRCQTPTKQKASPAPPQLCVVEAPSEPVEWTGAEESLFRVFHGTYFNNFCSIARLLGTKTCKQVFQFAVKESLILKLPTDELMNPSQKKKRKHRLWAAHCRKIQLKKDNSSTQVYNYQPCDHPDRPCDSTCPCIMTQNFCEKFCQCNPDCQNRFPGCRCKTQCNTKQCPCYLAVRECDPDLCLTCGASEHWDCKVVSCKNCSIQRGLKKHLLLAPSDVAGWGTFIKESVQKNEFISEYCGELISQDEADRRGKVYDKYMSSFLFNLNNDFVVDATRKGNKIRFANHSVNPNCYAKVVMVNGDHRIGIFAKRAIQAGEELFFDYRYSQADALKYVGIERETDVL
Chain of EZH1 (O75530 whole entry partner, species assumed): as the sequence (O75530 whole entry partner, species assumed) above
Chain of EZH1 (Q15022 whole entry partner, species assumed): as the sequence (Q15022 whole entry partner, species assumed) above

`CSc1cc(C)[nH]c(=O)c1CNC(=O)c1cc(-c2cnc(N(C)C)nc2)c2c(c1C)OC(C)(C1CCN(CC(F)(F)F)CC1)O2` (stereo not drawn) [Compound 35, 7-(2-(dimethylamino)pyrimidin-5-yl)-2,4-dimethyl-N-((6-methyl-4-(methylthio)-2-oxo-1,2-dihydropyridin-3-yl)methyl)-2-(1-(2,2,2-trifluoroethyl)piperidin-4-yl)benzo[d][1,3]dioxole-5-carboxamide]: the inhibition at 1 µM in the test on G401 cells is ≥ 70%; in the test with MKN-45 cells it was ≤ 30%; in the test on SW-13 cells, ≤ 30%; with Lovo cells, ≥ 70%; with NCI-H1299 cells, ≤ 30%; with MIA-PaCa-2 cells, ≤ 30%. Further, the inhibition at 0.005 µM against EZH1 is 67.7%; against EZH2, 94%.
In the case of `COc1ccc(-c2cc(C(=O)NCc3c(SC)cc(C)[nH]c3=O)c(C)c3c2OC(C)(C2CCN(CC(F)(F)F)CC2)O3)cn1` (stereo not drawn) [Compound 36, 7-(6-methoxypyridin-3-yl)-2,4-dimethyl-N-((6-methyl-4-(methylthio)-2-oxo-1,2-dihydropyridin-3-yl)methyl)-2-(1-(2,2,2-trifluoroethyl)piperidin-4-yl)benzo[d][1,3]dioxole-5-carboxamide], the inhibition at 1 µM was ≥ 70% in the test on G401 cells; ≤ 30% in the test on MKN-45 cells; ≤ 30% in the test on SW-13 cells; ≥ 70% in the test with Lovo cells; ≤ 30% in the test with NCI-H1299 cells; ≤ 30% in the test on MIA-PaCa-2 cells. Further, the inhibition at 0.005 µM was 57.4% at EZH1 and 83.1% at EZH2.
As to `CSc1cc(C)[nH]c(=O)c1CNC(=O)c1cc(-c2cnc(N3C[C@@H](C)O[C@@H](C)C3)nc2)c2c(c1C)OC(C)(C1CCN(CC(F)(F)F)CC1)O2` (stereo partly drawn) [Compound 38, 7-(2-((2S,6R)-2,6-dimethylmorpholino)pyrimidin-5-yl)-2,4-dimethyl-N-((6-methyl-4-(methylthio)-2-oxo-1,2-dihydropyridin-3-yl)methyl)-2-(1-(2,2,2-trifluoroethyl)piperidin-4-yl)benzo[d][1,3]dioxole-5-carboxamide], the inhibition at 1 µM is ≥ 70% in the test with G401 cells; 30 to 70% with MKN-45 cells; ≤ 30% with SW-13 cells; ≥ 70% in the test on Lovo cells; 30 to 70% in the test on NCI-H1299 cells; ≤ 30% with MIA-PaCa-2 cells. Further, the inhibition at 0.005 µM on EZH1 came out at 40.6%; against EZH2 it was 57.4%.
For the compound `CSc1cc(C)[nH]c(=O)c1CNC(=O)c1cc(-c2cnc(N3CCCCC3)nc2)c2c(c1C)OC(C)(C1CCN(CC(F)(F)F)CC1)O2` (stereo not drawn) [Compound 39, 2,4-dimethyl-N-((6-methyl-4-(methylthio)-2-oxo-1,2-dihydropyridin-3-yl)methyl)-7-(2-(piperidin-1-yl)pyrimidin-5-yl)-2-(1-(2,2,2-trifluoroethyl)piperidin-4-yl)benzo[d][1,3]dioxole-5-carboxamide], the inhibition at 1 µM in the test on G401 cells is 30 to 70%; in the test on MKN-45 cells it was ≤ 30%; with SW-13 cells, ≤ 30%; in the test with Lovo cells, ≥ 70%; in the test with NCI-H1299 cells, ≤ 30%; in the test with MIA-PaCa-2 cells, ≤ 30%. The figures for the inhibition at 0.005 µM against EZH1 and at EZH2 were 20.5% and 62%, respectively.
Take `CSc1cc(C)[nH]c(=O)c1CNC(=O)c1cc(-c2ccc(N3C[C@@H](C)O[C@@H](C)C3)nc2)c2c(c1C)OC(C)(C1CCN(C[C@H](C)O)CC1)O2` (stereo partly drawn) [Compound 40, 7-(6-((2S,6R)-2,6-dimethylmorpholino)pyridin-3-yl)-2-(1-((S)-2-hydroxypropyl)piperidin-4-yl)-2,4-dimethyl-N-((6-methyl-4-(methylthio)-2-oxo-1,2-dihydropyridin-3-yl)methyl)benzo[d][1,3]dioxole-5-carboxamide]: the inhibition at 1 µM with G401 cells was ≥ 70%; in the test with MKN-45 cells it was ≤ 30%; in the test on SW-13 cells, 30 to 70%; in the test on Lovo cells, 30 to 70%; with NCI-H1299 cells, 30 to 70%; with MIA-PaCa-2 cells it was ≤ 30%. Also, the figures for the inhibition at 0.005 µM against EZH1 and on EZH2 were 73.8% and 94.6%, respectively.
With `COC(CN1CCC(C2(C)Oc3c(-c4ccc(N5C[C@@H](C)O[C@@H](C)C5)nc4)cc(C(=O)NCc4c(SC)cc(C)[nH]c4=O)c(C)c3O2)CC1)OC` (stereo partly drawn) [Compound 41, 2-(1-(2,2-dimethoxyethyl)piperidin-4-yl)-7-(6-((2S,6R)-2,6-dimethylmorpholino)pyridin-3-yl)-2,4-dimethyl-N-((6-methyl-4-(methylthio)-2-oxo-1,2-dihydropyridin-3-yl)methyl)benzo[d][1,3]dioxole-5-carboxamide], the inhibition at 1 µM in the test with G401 cells is ≥ 70%; in the test on MKN-45 cells it was ≤ 30%; in the test with SW-13 cells it was ≤ 30%; in the test with Lovo cells, ≥ 70%; in the test with NCI-H1299 cells it was ≤ 30%; with MIA-PaCa-2 cells it was ≤ 30%. Also, the inhibition at 0.005 µM on EZH1 was 69.1%; against EZH2 it was 96.8%.
As to `CSc1cc(C)[nH]c(=O)c1CNC(=O)c1cc(-c2ccsc2)c2c(c1C)OC(C)(C1CCC(N(C)C)CC1)O2` (stereo not drawn) [Compound 42, 2-(4-(dimethylamino)cyclohexyl)-2,4-dimethyl-N-((6-methyl-4-(methylthio)-2-oxo-1,2-dihydropyridin-3-yl)methyl)-7-(thiophen-3-yl)benzo[d][1,3]dioxole-5-carboxamide], the inhibition at 1 µM is ≥ 70% with G401 cells; 30 to 70% in the test on MKN-45 cells; 30 to 70% in the test with SW-13 cells; ≥ 70% with Lovo cells; 30 to 70% in the test on NCI-H1299 cells; ≤ 30% in the test on MIA-PaCa-2 cells. In addition, the inhibition at 0.005 µM at EZH1 stood at 59.6%; against EZH2, 90.5%.
`COc1ccc(F)cc1-c1cc(C(=O)NCc2c(SC)cc(C)[nH]c2=O)c(C)c2c1OC(C)(C1CCC(N(C)C)CC1)O2` (stereo not drawn) [Compound 43, 2-(4-(dimethylamino)cyclohexyl)-7-(5-fluoro-2-methoxyphenyl)-2,4-dimethyl-N-((6-methyl-4-(methylthio)-2-oxo-1,2-dihydropyridin-3-yl)methyl)benzo[d][1,3]dioxole-5-carboxamide]: the inhibition at 1 µM in the test on G401 cells was ≥ 70%; with MKN-45 cells, 30 to 70%; with SW-13 cells, ≤ 30%; with Lovo cells, ≥ 70%; with NCI-H1299 cells, 30 to 70%; with MIA-PaCa-2 cells, ≤ 30%. Moreover, the inhibition at 0.005 µM was 65.6% against EZH1 and 94.6% at EZH2.
For the compound `CSc1cc(C)[nH]c(=O)c1CNC(=O)c1cc(-c2ccc(N3C[C@@H](C)O[C@@H](C)C3)nc2)c2c(c1C)OC(C)(C1CCN(CC(F)F)CC1)O2` (stereo partly drawn) [Compound 46, 2-(1-(2,2-difluoroethyl)piperidin-4-yl)-7-(6-((2S,6R)-2,6-dimethylmorpholino)pyridin-3-yl)-2,4-dimethyl-N-((6-methyl-4-(methylthio)-2-oxo-1,2-dihydropyridin-3-yl)methyl)benzo[d][1,3]dioxole-5-carboxamide], the inhibition at 1 µM in the test on G401 cells is ≥ 70%; in the test with MKN-45 cells, 30 to 70%; in the test on SW-13 cells it was 30 to 70%; with Lovo cells, ≥ 70%; with NCI-H1299 cells, 30 to 70%; in the test with MIA-PaCa-2 cells, ≤ 30%. Besides, the inhibition at 0.005 µM on EZH1 amounted to 44.7%; on EZH2 it was 59.2%. Further, the inhibition at 0.01 µM on EZH1 stood at 63%; against EZH2 it was 84%.
In the case of `CSc1cc(C)[nH]c(=O)c1CNC(=O)c1cc(-c2ccc(N3CCOCC3)nc2)c2c(c1C)OC(C)(C1CCN(CC(F)(F)F)CC1)O2` (stereo not drawn) [Compound 61, 2,4-dimethyl-N-((6-methyl-4-(methylthio)-2-oxo-1,2-dihydropyridin-3-yl)methyl)-7-(6-morpholinopyridin-3-yl)-2-(1-(2,2,2-trifluoro)piperidin-4-yl)benzo[d][1,3]dioxole-5-carboxamide], the inhibition at 1 µM with G401 cells was ≥ 70%; with MKN-45 cells, 30 to 70%; with SW-13 cells it was ≤ 30%; in the test on Lovo cells, ≥ 70%; in the test on NCI-H1299 cells, 30 to 70%; in the test on MIA-PaCa-2 cells, ≤ 30%. The inhibition at 0.005 µM on EZH1 turned out to be 53%; at EZH2 it was 86.5%. Further, the results for the inhibition at 0.01 µM against EZH1 and against EZH2 were 78.2% and 99.4%, respectively.
